ChEMBL document CHEMBL1909046, “DrugMatrix in vitro pharmacology data”

Molecular target: T1, Amine oxidase [flavin-containing] A (Homo sapiens, UniProt P21397)
T1 sequence (P21397 whole entry): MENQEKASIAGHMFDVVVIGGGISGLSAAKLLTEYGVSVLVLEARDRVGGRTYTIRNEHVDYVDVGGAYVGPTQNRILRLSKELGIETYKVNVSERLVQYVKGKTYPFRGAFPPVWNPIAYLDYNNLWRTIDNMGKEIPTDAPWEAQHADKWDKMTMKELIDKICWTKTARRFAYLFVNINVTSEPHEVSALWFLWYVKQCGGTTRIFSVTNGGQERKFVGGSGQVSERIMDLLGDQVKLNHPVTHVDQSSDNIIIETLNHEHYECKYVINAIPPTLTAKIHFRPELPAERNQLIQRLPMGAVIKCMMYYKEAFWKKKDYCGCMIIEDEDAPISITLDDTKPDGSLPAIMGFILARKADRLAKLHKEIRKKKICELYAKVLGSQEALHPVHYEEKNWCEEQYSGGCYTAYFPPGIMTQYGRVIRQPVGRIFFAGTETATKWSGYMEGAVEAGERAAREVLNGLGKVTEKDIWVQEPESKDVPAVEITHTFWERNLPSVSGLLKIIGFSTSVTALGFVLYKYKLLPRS
Assay: DRUGMATRIX: Monoamine Oxidase MAO-A enzyme inhibition (substrate: Kynuramine)
Design: species or system BTI-TN-5B1-4
Conditions: bti-tn-5b1-4; Not Active = under 50% inhibition at 10 µM

| SMILES | IC50 |
| --- | --- |
| O=c1[nH]c(=O)n([C@H]2C[C@H](O)[C@@H](CO)O2)cc1F [FLOXURIDINE] | Not Active |
| COC(=O)Nc1nc2cc(C(=O)c3ccc(F)cc3)ccc2[nH]1 [FLUBENDAZOLE] | Not Active |
| CC(=O)OCC(=O)[C@@]1(O)CC[C@H]2[C@@H]3CCC4=CC(=O)CC[C@]4(C)[C@@]3(F)[C@@H](O)C[C@@]21C [FLUDROCORTISONE ACETATE] | Not Active |
| CCOC(=O)c1ncn2c1CN(C)C(=O)c1cc(F)ccc1-2 [FLUMAZENIL] | Not Active |
| CC(=O)OCC(=O)[C@@]12OC(C)(C)O[C@@H]1C[C@H]1[C@@H]3C[C@H](F)C4=CC(=O)C=C[C@]4(C)[C@@]3(F)[C@@H](O)C[C@@]12C [FLUOCINONIDE] | Not Active |
| O=C(O)P(=O)(O)O [FOSCARNET] | Not Active |
| Cc1ccc(C)c(OCCCC(C)(C)C(=O)O)c1 [GEMFIBROZIL] | Not Active |

Molecular target: Sodium-dependent dopamine transporter (Homo sapiens, UniProt Q01959)
Sequence (Q01959 whole entry): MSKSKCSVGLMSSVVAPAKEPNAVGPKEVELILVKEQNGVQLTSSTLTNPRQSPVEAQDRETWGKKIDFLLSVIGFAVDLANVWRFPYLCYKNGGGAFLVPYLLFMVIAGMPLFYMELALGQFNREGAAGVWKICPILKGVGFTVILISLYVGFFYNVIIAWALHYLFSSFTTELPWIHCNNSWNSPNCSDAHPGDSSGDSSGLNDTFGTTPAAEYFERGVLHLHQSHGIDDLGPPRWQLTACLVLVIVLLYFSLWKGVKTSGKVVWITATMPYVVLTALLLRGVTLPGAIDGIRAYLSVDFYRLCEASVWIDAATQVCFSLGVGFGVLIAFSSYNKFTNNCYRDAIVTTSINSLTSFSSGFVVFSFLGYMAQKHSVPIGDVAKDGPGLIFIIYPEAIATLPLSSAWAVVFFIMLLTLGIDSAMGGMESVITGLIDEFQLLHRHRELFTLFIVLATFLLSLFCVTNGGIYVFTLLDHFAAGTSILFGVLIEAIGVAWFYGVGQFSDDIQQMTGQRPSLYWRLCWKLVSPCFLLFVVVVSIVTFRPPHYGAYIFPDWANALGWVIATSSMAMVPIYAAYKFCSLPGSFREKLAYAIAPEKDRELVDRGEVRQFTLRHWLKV
Assay: DRUGMATRIX: Dopamine Transporter radioligand binding (ligand: [125I] RTI-55)
Format: cell membranes, CHO-K1, Membrane
Conditions: cho-k1; Not Active = under 50% inhibition at 10 µM

| SMILES | IC50 |
| --- | --- |
| O=c1[nH]c(=O)n([C@H]2C[C@H](O)[C@@H](CO)O2)cc1F [FLOXURIDINE] | Not Active |
| COC(=O)Nc1nc2cc(C(=O)c3ccc(F)cc3)ccc2[nH]1 [FLUBENDAZOLE] | Not Active |
| CC(=O)OCC(=O)[C@@]1(O)CC[C@H]2[C@@H]3CCC4=CC(=O)CC[C@]4(C)[C@@]3(F)[C@@H](O)C[C@@]21C [FLUDROCORTISONE ACETATE] | Not Active |
| CCOC(=O)c1ncn2c1CN(C)C(=O)c1cc(F)ccc1-2 [FLUMAZENIL] | Not Active |
| CC(=O)OCC(=O)[C@@]12OC(C)(C)O[C@@H]1C[C@H]1[C@@H]3C[C@H](F)C4=CC(=O)C=C[C@]4(C)[C@@]3(F)[C@@H](O)C[C@@]12C [FLUOCINONIDE] | Not Active |
| O=C(O)P(=O)(O)O [FOSCARNET] | Not Active |
| Cc1ccc(C)c(OCCCC(C)(C)C(=O)O)c1 [GEMFIBROZIL] | Not Active |

Molecular target: T2, Alpha-1D adrenergic receptor (Homo sapiens, UniProt P25100); further: in other assays of this panel Not Active means under 50% inhibition at 10 µM
T2 sequence (P25100 whole entry): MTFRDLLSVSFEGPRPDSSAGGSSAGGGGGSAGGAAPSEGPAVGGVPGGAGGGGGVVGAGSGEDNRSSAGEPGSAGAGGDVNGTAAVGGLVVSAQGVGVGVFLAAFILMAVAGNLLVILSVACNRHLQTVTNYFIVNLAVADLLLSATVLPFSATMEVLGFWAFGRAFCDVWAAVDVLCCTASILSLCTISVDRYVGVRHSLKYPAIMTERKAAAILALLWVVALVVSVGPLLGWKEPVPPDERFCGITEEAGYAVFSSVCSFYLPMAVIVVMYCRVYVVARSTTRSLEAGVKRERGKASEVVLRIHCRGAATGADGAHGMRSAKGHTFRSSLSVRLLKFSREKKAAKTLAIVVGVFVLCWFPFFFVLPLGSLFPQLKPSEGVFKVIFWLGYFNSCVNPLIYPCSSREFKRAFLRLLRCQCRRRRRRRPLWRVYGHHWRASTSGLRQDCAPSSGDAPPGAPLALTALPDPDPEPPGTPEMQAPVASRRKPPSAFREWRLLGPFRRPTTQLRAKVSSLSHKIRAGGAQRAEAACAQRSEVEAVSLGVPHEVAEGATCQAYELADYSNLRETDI
Format: cell membranes, HEK293, Membrane
Conditions: hek293

| SMILES | IC50 |
| --- | --- |
| O=c1[nH]c(=O)n([C@H]2C[C@H](O)[C@@H](CO)O2)cc1F [FLOXURIDINE] | Not Active |
| COC(=O)Nc1nc2cc(C(=O)c3ccc(F)cc3)ccc2[nH]1 [FLUBENDAZOLE] | Not Active |
| CC(=O)OCC(=O)[C@@]1(O)CC[C@H]2[C@@H]3CCC4=CC(=O)CC[C@]4(C)[C@@]3(F)[C@@H](O)C[C@@]21C [FLUDROCORTISONE ACETATE] | Not Active |
| CCOC(=O)c1ncn2c1CN(C)C(=O)c1cc(F)ccc1-2 [FLUMAZENIL] | Not Active |
| CC(=O)OCC(=O)[C@@]12OC(C)(C)O[C@@H]1C[C@H]1[C@@H]3C[C@H](F)C4=CC(=O)C=C[C@]4(C)[C@@]3(F)[C@@H](O)C[C@@]12C [FLUOCINONIDE] | Not Active |
| O=C(O)P(=O)(O)O [FOSCARNET] | Not Active |
| Cc1ccc(C)c(OCCCC(C)(C)C(=O)O)c1 [GEMFIBROZIL] | Not Active |

Molecular target: T3, Neuropeptide Y receptor type 1 (Homo sapiens, UniProt P25929); further: in other assays of this panel Not Active means under 50% inhibition at 10 µM
T3 sequence (P25929 whole entry): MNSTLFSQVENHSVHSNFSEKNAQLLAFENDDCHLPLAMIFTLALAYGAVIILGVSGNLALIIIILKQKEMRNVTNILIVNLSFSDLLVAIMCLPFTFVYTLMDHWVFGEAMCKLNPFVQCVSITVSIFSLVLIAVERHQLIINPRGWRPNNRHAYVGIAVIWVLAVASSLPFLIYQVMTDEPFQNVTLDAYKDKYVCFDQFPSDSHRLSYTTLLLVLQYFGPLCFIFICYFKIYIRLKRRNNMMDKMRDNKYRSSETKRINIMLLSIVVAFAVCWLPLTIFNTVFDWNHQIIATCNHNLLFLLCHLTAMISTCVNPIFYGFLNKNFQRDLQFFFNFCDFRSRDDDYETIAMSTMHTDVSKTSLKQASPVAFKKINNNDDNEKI
Format: cell membranes, Membrane
Conditions: sk-n-mc

| SMILES | IC50 |
| --- | --- |
| O=c1[nH]c(=O)n([C@H]2C[C@H](O)[C@@H](CO)O2)cc1F [FLOXURIDINE] | Not Active |
| COC(=O)Nc1nc2cc(C(=O)c3ccc(F)cc3)ccc2[nH]1 [FLUBENDAZOLE] | Not Active |
| CC(=O)OCC(=O)[C@@]1(O)CC[C@H]2[C@@H]3CCC4=CC(=O)CC[C@]4(C)[C@@]3(F)[C@@H](O)C[C@@]21C [FLUDROCORTISONE ACETATE] | Not Active |
| CCOC(=O)c1ncn2c1CN(C)C(=O)c1cc(F)ccc1-2 [FLUMAZENIL] | Not Active |
| CC(=O)OCC(=O)[C@@]12OC(C)(C)O[C@@H]1C[C@H]1[C@@H]3C[C@H](F)C4=CC(=O)C=C[C@]4(C)[C@@]3(F)[C@@H](O)C[C@@]12C [FLUOCINONIDE] | Not Active |
| O=C(O)P(=O)(O)O [FOSCARNET] | Not Active |
| Cc1ccc(C)c(OCCCC(C)(C)C(=O)O)c1 [GEMFIBROZIL] | Not Active |

Molecular target: T4, B2 bradykinin receptor (Homo sapiens, UniProt P30411); further: in other assays of this panel Not Active means under 50% inhibition at 10 µM
T4 sequence (P30411 whole entry): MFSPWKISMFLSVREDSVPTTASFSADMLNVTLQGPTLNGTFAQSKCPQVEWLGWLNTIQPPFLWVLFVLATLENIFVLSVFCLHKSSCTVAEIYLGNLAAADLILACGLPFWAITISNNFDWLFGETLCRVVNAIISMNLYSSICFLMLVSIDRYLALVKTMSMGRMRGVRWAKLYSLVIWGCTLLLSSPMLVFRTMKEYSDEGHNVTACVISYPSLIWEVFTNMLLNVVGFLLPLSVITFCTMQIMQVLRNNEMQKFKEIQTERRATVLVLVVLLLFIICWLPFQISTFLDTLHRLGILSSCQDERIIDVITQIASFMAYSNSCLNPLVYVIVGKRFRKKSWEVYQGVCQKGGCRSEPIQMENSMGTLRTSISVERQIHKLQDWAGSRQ
Format: cell membranes, Membrane
Conditions: chem-1

| SMILES | IC50 |
| --- | --- |
| O=c1[nH]c(=O)n([C@H]2C[C@H](O)[C@@H](CO)O2)cc1F [FLOXURIDINE] | Not Active |
| COC(=O)Nc1nc2cc(C(=O)c3ccc(F)cc3)ccc2[nH]1 [FLUBENDAZOLE] | Not Active |
| CC(=O)OCC(=O)[C@@]1(O)CC[C@H]2[C@@H]3CCC4=CC(=O)CC[C@]4(C)[C@@]3(F)[C@@H](O)C[C@@]21C [FLUDROCORTISONE ACETATE] | Not Active |
| CCOC(=O)c1ncn2c1CN(C)C(=O)c1cc(F)ccc1-2 [FLUMAZENIL] | Not Active |
| CC(=O)OCC(=O)[C@@]12OC(C)(C)O[C@@H]1C[C@H]1[C@@H]3C[C@H](F)C4=CC(=O)C=C[C@]4(C)[C@@]3(F)[C@@H](O)C[C@@]12C [FLUOCINONIDE] | Not Active |
| O=C(O)P(=O)(O)O [FOSCARNET] | Not Active |
| Cc1ccc(C)c(OCCCC(C)(C)C(=O)O)c1 [GEMFIBROZIL] | Not Active |

System: not listed separately
Assay: DRUGMATRIX: Phorbol Ester radioligand binding (ligand: [3H] PDBu)
Format: cell membranes, Mus musculus, ICR, Brain, Membrane
Conditions: Not Active = under 50% inhibition at 10 µM

| SMILES | IC50 | Ki |
| --- | --- | --- |
| O=c1[nH]c(=O)n([C@H]2C[C@H](O)[C@@H](CO)O2)cc1F [FLOXURIDINE] | Not Active | Not Active |
| COC(=O)Nc1nc2cc(C(=O)c3ccc(F)cc3)ccc2[nH]1 [FLUBENDAZOLE] | Not Active | Not Active |
| CC(=O)OCC(=O)[C@@]1(O)CC[C@H]2[C@@H]3CCC4=CC(=O)CC[C@]4(C)[C@@]3(F)[C@@H](O)C[C@@]21C [FLUDROCORTISONE ACETATE] | Not Active | Not Active |
| CCOC(=O)c1ncn2c1CN(C)C(=O)c1cc(F)ccc1-2 [FLUMAZENIL] | Not Active | Not Active |
| CC(=O)OCC(=O)[C@@]12OC(C)(C)O[C@@H]1C[C@H]1[C@@H]3C[C@H](F)C4=CC(=O)C=C[C@]4(C)[C@@]3(F)[C@@H](O)C[C@@]12C [FLUOCINONIDE] | Not Active | Not Active |
| O=C(O)P(=O)(O)O [FOSCARNET] | Not Active | Not Active |
| Cc1ccc(C)c(OCCCC(C)(C)C(=O)O)c1 [GEMFIBROZIL] | Not Active | Not Active |
